Results from patent US11981658B2, “Substituted aminopyridine compounds as EGFR inhibitors” (YUHAN CORPORATION, priority 2021, dated 2024).
Where two headings read alike, the source gives them in different places.

Columns and labels:
EGFR Del19/T790M/C797S = EGFR Del19/T790M/C797S (Homo sapiens, UniProt P00533, C797S/DEL746-750/T790M); test: Biochemical EGFR kinase inhibition assay (Lance Ultra TR-FRET), triple mutant del19/T790M/C797S
Outline: (§1)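 In this biochemical assay, phosphorylation after a one-hour room-temperature reaction was detected with europium-labelled anti-phosphopeptide antibody at 2 nM final concentration.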

EGFR L858R/T790M/C797S = EGFR L858R/T790M/C797S (Homo sapiens, UniProt P00533, C797S/L858R/T790M); test: Biochemical EGFR kinase inhibition assay (Lance Ultra TR-FRET), triple mutant L858R/T790M/C797S
Chain of EGFR L858R/T790M/C797S (P00533 25-1210 T790M/C797S/L858R): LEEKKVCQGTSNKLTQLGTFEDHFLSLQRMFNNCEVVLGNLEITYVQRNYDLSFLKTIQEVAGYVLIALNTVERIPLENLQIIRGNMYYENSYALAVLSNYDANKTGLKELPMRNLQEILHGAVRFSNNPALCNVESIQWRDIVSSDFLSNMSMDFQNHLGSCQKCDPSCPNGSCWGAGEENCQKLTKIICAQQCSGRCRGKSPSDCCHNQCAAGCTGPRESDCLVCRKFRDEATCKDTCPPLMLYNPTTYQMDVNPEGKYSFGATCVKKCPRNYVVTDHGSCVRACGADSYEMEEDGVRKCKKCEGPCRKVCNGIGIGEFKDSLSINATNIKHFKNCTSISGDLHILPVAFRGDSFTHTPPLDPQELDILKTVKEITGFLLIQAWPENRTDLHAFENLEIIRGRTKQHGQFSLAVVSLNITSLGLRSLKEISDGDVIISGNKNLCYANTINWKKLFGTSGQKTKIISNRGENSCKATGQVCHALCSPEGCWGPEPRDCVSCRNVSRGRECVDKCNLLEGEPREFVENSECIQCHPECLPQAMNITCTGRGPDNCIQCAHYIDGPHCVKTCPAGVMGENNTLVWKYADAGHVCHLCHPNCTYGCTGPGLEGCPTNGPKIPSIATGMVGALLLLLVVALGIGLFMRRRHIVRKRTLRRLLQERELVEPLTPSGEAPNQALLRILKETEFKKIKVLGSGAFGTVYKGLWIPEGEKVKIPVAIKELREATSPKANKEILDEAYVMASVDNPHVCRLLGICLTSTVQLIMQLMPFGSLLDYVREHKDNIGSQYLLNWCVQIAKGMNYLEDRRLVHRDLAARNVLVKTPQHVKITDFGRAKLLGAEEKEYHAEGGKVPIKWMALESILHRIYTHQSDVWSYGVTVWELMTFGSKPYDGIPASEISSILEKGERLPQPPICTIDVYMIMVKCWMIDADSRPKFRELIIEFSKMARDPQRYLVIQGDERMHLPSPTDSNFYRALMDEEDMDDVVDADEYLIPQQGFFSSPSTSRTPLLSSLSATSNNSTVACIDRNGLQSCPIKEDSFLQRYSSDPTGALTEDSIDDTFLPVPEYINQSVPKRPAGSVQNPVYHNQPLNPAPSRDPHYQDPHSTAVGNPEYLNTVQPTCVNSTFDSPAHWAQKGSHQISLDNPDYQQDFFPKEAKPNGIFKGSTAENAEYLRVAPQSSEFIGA
Outline: as §1

EGFR Del19/C797S = EGFR Del19/C797S (Homo sapiens, UniProt P00533, C797S/DEL746-750); test: Biochemical EGFR kinase inhibition assay (Lance Ultra TR-FRET), double mutant del19/C797S
Outline: as §1

EGFR L858R/C797S = EGFR L858R/C797S (Homo sapiens, UniProt P00533, C797S/L858R); test: Biochemical EGFR kinase inhibition assay (Lance Ultra TR-FRET), double mutant L858R/C797S
Chain of EGFR L858R/C797S (P00533 25-1210 C797S/L858R): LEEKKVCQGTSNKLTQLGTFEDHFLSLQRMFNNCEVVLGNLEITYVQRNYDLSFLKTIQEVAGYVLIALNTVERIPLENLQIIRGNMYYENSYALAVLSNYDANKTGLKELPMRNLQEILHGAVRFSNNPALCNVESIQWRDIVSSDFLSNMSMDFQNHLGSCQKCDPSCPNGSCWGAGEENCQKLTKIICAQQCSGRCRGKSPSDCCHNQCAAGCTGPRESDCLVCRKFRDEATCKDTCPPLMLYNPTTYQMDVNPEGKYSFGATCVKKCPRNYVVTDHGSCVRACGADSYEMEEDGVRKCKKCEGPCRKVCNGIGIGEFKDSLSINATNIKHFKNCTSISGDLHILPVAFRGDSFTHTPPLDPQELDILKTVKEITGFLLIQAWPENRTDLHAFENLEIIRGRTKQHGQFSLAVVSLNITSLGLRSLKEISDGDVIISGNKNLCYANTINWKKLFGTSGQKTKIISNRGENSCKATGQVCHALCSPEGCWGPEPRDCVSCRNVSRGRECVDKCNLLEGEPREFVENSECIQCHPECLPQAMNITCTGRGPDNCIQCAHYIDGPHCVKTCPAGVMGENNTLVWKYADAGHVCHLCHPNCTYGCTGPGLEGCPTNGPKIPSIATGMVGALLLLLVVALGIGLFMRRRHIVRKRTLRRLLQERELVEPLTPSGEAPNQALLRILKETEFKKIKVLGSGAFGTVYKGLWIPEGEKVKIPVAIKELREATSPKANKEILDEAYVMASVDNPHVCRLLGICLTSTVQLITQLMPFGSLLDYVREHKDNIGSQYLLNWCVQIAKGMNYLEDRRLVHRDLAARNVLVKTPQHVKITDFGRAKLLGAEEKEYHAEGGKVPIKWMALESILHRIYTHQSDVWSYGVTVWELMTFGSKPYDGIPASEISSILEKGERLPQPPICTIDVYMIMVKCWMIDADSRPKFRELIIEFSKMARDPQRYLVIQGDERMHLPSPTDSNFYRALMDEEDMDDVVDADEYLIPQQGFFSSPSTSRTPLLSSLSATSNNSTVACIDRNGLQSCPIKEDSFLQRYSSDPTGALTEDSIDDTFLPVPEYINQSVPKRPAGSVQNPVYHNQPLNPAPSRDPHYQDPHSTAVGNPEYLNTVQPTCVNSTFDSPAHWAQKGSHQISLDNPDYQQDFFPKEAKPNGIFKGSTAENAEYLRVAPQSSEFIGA
Outline: as §1

EGFR wildtype (WT) = EGFR wildtype (WT) (Homo sapiens, UniProt P00533); test: Biochemical EGFR kinase inhibition assay (Lance Ultra TR-FRET), wildtype
Chain of EGFR wildtype (WT) (P00533 25-1210): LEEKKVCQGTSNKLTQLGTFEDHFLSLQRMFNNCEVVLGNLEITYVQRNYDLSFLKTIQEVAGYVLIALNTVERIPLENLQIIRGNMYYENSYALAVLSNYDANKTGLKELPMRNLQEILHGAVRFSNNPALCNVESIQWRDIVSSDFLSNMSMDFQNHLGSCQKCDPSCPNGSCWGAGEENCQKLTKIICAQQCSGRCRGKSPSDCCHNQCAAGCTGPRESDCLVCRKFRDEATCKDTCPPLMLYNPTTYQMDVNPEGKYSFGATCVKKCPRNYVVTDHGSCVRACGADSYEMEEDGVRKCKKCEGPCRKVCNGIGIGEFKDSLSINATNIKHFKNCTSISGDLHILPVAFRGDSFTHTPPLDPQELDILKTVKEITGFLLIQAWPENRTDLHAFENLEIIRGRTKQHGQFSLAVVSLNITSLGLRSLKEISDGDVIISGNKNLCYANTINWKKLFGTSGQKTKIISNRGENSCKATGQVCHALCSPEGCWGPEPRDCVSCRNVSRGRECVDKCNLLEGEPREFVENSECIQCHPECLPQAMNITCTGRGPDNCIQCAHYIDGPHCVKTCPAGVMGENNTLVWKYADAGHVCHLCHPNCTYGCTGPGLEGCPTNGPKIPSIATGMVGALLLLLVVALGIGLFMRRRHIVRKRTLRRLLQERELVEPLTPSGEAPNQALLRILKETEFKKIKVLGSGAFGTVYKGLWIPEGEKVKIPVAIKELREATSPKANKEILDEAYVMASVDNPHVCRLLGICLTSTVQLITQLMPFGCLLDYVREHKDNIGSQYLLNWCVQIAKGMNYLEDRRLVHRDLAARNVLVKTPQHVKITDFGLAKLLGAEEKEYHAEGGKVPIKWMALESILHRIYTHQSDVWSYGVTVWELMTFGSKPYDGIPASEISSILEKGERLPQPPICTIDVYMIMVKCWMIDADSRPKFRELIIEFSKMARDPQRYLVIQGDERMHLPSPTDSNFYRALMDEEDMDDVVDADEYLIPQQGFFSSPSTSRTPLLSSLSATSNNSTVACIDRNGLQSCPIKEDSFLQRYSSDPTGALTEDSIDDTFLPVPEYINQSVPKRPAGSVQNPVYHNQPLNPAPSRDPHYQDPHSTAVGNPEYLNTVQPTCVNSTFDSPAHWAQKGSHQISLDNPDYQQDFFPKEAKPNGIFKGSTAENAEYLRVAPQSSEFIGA
Outline: as §1

[1] = IC50 Del19/T790M/C797S (nM), 100 μM ATP
[2] = Km ATP, read-out: IC50 Del19/T790M/C797S (nM) Km ATP
[3] = IC50 L858R/T790M/C797S (nM), 100 μM ATP
[4] = Km ATP, read-out: IC50 L858R/T790M/C797S (nM) Km ATP
[5] = IC50 Del19/C797S (nM), 100 μM ATP
[6] = Km ATP, read-out: IC50 Del19/C797S (nM) Km ATP
[7] = IC50 L858R/C797S (nM), 100 μM ATP
[8] = Km ATP, read-out: IC50 L858R/C797S (nM) Km ATP
[9] = Km ATP, read-out: IC50 WT (nM) Km ATP
[10] = Km ATP, read-out: IC50 Del19/T790M/C797S (nM), Km ATP
[11] = Km ATP, read-out: IC50 L858R/T790M/C797S (nM), Km ATP
[12] = Km ATP, read-out: IC50 Del19/C797S (nM), Km ATP
[13] = Km ATP, read-out: IC50 L858R/C797S (nM), Km ATP
[14] = Km ATP, read-out: IC50 WT (nM), Km ATP
[15] = ATP at Km, read-out: IC50 Del19/T790M/C797S (nM), Km ATP
[16] = ATP at Km, read-out: IC50 L858R/T790M/C797S (nM), Km ATP
[17] = ATP at Km, read-out: IC50 Del19/C797S (nM), Km ATP
[18] = ATP at Km, read-out: IC50 L858R/C797S (nM), Km ATP
[19] = ATP at Km, read-out: IC50 WT (nM), Km ATP

Chain of EGFR Del19/T790M/C797S (P00533 with tags, fused parts or gaps DEL746-750/T790M/C797S): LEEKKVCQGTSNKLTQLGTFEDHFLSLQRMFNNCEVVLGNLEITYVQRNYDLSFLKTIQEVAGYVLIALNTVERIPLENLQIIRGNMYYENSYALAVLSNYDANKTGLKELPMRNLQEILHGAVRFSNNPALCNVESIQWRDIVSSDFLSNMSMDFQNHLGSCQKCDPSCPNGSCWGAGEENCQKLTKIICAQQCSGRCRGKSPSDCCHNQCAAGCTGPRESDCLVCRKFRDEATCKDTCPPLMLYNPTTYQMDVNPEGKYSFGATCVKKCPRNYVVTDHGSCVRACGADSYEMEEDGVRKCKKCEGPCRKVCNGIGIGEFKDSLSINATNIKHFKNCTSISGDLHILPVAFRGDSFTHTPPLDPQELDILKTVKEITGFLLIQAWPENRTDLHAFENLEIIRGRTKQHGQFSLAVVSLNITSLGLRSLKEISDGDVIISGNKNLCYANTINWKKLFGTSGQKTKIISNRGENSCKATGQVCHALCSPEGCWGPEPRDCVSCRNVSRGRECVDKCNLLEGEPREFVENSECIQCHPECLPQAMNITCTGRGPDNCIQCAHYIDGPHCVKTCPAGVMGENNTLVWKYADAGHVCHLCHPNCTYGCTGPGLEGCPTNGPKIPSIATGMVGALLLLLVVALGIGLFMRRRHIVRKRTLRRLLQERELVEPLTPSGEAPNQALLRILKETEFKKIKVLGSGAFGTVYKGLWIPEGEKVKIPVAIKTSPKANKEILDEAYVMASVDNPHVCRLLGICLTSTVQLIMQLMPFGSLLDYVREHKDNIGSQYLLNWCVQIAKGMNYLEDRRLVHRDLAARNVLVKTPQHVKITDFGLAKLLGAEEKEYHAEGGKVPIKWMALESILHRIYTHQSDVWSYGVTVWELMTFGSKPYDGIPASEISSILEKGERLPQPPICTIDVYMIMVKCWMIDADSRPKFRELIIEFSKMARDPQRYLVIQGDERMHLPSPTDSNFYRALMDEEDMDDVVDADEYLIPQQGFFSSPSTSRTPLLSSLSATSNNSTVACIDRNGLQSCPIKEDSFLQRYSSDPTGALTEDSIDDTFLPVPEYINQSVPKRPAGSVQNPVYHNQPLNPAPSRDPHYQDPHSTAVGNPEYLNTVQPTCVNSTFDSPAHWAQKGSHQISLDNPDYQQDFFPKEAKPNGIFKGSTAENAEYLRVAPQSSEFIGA

| Compound | IC50 (EGFR Del19/T790M/C797S; [1]) | IC50 (EGFR Del19/T790M/C797S; [2]) | IC50 (EGFR L858R/T790M/C797S; [3]) | IC50 (EGFR L858R/T790M/C797S; [4]) | IC50 (EGFR Del19/C797S; [5]) | IC50 (EGFR Del19/C797S; [6]) | IC50 (EGFR L858R/C797S; [7]) | IC50 (EGFR L858R/C797S; [8]) | IC50 (EGFR wildtype (WT); IC50 WT (nM), 100 μM ATP) | IC50 (EGFR wildtype (WT); [9]) | IC50 (EGFR Del19/T790M/C797S; [10]) | IC50 (EGFR L858R/T790M/C797S; [11]) | IC50 (EGFR Del19/C797S; [12]) | IC50 (EGFR L858R/C797S; [13]) | IC50 (EGFR wildtype (WT); [14]) | IC50 (EGFR Del19/T790M/C797S; [15]) | IC50 (EGFR L858R/T790M/C797S; [16]) | IC50 (EGFR Del19/C797S; [17]) | IC50 (EGFR L858R/C797S; [18]) | IC50 (EGFR wildtype (WT); [19]) |
| --- | --- | --- | --- | --- | --- | --- | --- | --- | --- | --- | --- | --- | --- | --- | --- | --- | --- | --- | --- | --- |
| Cn1cc(C#Cc2cnc(Nc3ccnc(-c4cnn(S(=O)(=O)C5CC5)c4)n3)cc2N2CCC3(CCNC3=O)CC2)cn1 [Example 79, 8-(2-((2-(1-(Cyclopropylsulfonyl)-1H-pyrazol-4-yl)pyrimidin-4-yl)amino)-5-((1-methyl-1H-pyrazol-4-yl)ethynyl)pyridin-4-yl)-2,8-diazaspiro[4.5]decan-1-one] | 0.3 nM | 0.2 nM | 0.8 nM | 0.1 nM | 1.3 nM | 1.3 nM | 17.8 nM | 1.2 nM | 7190 nM | 6.1 nM |  |  |  |  |  |  |  |  |  |  |
| CC1OCCC1C#Cc1cnc(Nc2ccnc(-c3cnn(S(=O)(=O)C4CC4)c3)n2)cc1N1CCC(C)(CO)CC1 (stereo not drawn) [Example 438, (1-(2-((2-(1-(Cyclopropylsulfonyl)-1H-pyrazol-4-yl)pyrimidin-4-yl)amino)-5-((2-methyltetrahydrofuran-3-yl)ethynyl)pyridin-4-yl)-4-methylpiperidin-4-yl)methanol] | 0.3 nM |  | 0.7 nM |  | 3.3 nM |  | 85.5 nM |  | 6420 nM |  | 0.3 nM | 0.2 nM | 1.7 nM | 1.9 nM | 5.8 nM |  |  |  |  |  |
| O=C(N1CCC(C#Cc2cnc(Nc3ccnc(-c4cnn(S(=O)(=O)C5CC5)c4)n3)cc2NC2CCC(CO)CC2)C1)C(F)(F)F (stereo not drawn) [Example 408, 1-(3-((6-((2-(1-(Cyclopropylsulfonyl)-1H-pyrazol-4-yl)pyrimidin-4-yl)amino)-4-(((1s,4s)-4-(hydroxymethyl)cyclohexyl)amino)pyridin-3-yl)ethynyl)pyrrolidin-1-yl)-2,2,2-trifluoroethan-1-one] | 0.1 nM |  | 0.2 nM |  | 2.1 nM |  | 26 nM |  | 6570 nM |  |  |  |  |  |  |  |  |  |  |  |
| CN(C)CCCn1cc(C#Cc2cnc(Nc3ccnc(-c4cnn(S(=O)(=O)C5CC5)c4)n3)cc2N2CCCC(CO)C2)cn1 (stereo not drawn) [Example 122, (1-(2-((2-(1-(Cyclopropylsulfonyl)-1H-pyrazol-4-yl)pyrimidin-4-yl)amino)-5-((1-(3-(dimethylamino)propyl)-1H-pyrazol-4-yl)ethynyl)pyridin-4-yl)piperidin-3-yl)methanol] | 0.5 nM | 0.4 nM | 0.5 nM | 0.2 nM | 0.8 nM | 0.6 nM | 11.8 nM | 0.5 nM | 2780 nM | 7.8 nM |  |  |  |  |  |  |  |  |  |  |
| Cn1cnc(C#Cc2cnc(Nc3ccnc(-c4cnn(S(=O)(=O)C5CC5)c4)n3)cc2N2CCC(O)CC2)n1 [Example 214, 1-(2-((2-(1-(Cyclopropylsulfonyl)-1H-pyrazol-4-yl)pyrimidin-4-yl)amino)-5-((1-methyl-1H-1,2,4-triazol-3-yl)ethynyl)pyridin-4-yl)piperidin-4-ol] | 1.4 nM |  | 4 nM |  | 109 nM |  | 274 nM |  | > 10000 nM |  |  |  |  |  |  |  |  |  |  |  |
| O=S(=O)(C1CC1)n1cc(-c2nccc(Nc3cc(N[C@H]4CCC[C@H](O)C4)c(C#Cc4cnn(CCF)c4)cn3)n2)cn1 [Example 44, (1S,3S)-3-((2-((2-(1-(Cyclopropylsulfonyl)-1H-pyrazol-4-yl)pyrimidin-4-yl)amino)-5-((1-(2-fluoroethyl)-1H-pyrazol-4-yl)ethynyl)pyridin-4-yl)amino)cyclohexan-1-ol] | 1.2 nM |  | 1.4 nM |  | 2.6 nM |  | 12.7 nM |  | 2310 nM |  |  |  |  |  |  |  |  |  |  |  |
| O=S(=O)(C1CC1)N1CCC(C#Cc2cnc(Nc3ccnc(-c4cnn(S(=O)(=O)C5CC5)c4)n3)cc2NC[C@H]2CC[C@H](CO)CC2)CC1 [Example 392, ((1r,4r)-4-(((2-((2-(1-(Cyclopropylsulfonyl)-1H-pyrazol-4-yl)pyrimidin-4-yl)amino)-5-((1-(cyclopropylsulfonyl)piperidin-4-yl)ethynyl)pyridin-4-yl)amino)methyl)cyclohexyl)methanol] | 22 nM |  | 60.1 nM |  | 212 nM |  | 4300 nM |  | > 10000 nM |  |  |  |  |  |  |  |  |  |  |  |
| CC1(CO)CCN(c2cc(Nc3ccnc(-c4cnn(S(=O)(=O)C5CC5)c4)n3)ncc2C#CCCF)CC1 [Example 276, (1-(2-((2-(1-(Cyclopropylsulfonyl)-1H-pyrazol-4-yl)pyrimidin-4-yl)amino)-5-(4-fluorobut-1-yn-1-yl)pyridin-4-yl)-4-methylpiperidin-4-yl)methanol] | 0.7 nM |  | 0.5 nM |  | 1.3 nM |  | 16.5 nM |  | 5290 nM |  |  |  |  |  |  | 0.3 nM | 0.1 nM | 0.8 nM | 1.5 nM | 7.5 nM |
| CC1(CO)CCN(c2cc(Nc3ccnc(-c4cnn(S(=O)(=O)C5CC5)c4)n3)ncc2C#Cc2cnn(C3COC3)c2)CC1 [Example 245, (1-(2-((2-(1-(Cyclopropylsulfonyl)-1H-pyrazol-4-yl)pyrimidin-4-yl)amino)-5-((1-(oxetan-3-yl)-1H-pyrazol-4-yl)ethynyl)pyridin-4-yl)-4-methylpiperidin-4-yl)methanol] | 1.4 nM |  | 1.3 nM |  | 0.5 nM |  | 2.8 nM |  | 474 nM |  |  |  |  |  |  | 0.8 nM | 0.5 nM | 0.6 nM | 1.1 nM | 6.7 nM |
| CC(C)(C#Cc1cnc(Nc2ccnc(-c3cnn(S(=O)(=O)C4CC4)c3)n2)cc1N[C@H]1CC[C@@H](O)CC1)N1CCOCC1 [Example 230, (1s,4s)-4-((2-((2-(1-(Cyclopropylsulfonyl)-1H-pyrazol-4-yl)pyrimidin-4-yl)amino)-5-(3-methyl-3-morpholinobut-1-yn-1-yl)pyridin-4-yl)amino)cyclohexan-1-ol] | 5.9 nM |  | 18.2 nM |  | 1720 nM |  | 813 nM |  | > 10000 nM |  |  |  |  |  |  |  |  |  |  |  |
| Cn1cc(C#Cc2cnc(Nc3ccnc(-c4cnn(S(=O)(=O)C5CC5)c4)n3)cc2NC2CCCCC2)cn1 [Example 2, N^4-Cyclohexyl-N^2-(2-(1-(cyclopropylsulfonyl)-1H-pyrazol-4-yl)pyrimidin-4-yl)-5-((1-methyl-1H-pyrazol-4-yl)ethynyl)pyridine-2,4-diamine] |  | 5.7 nM |  | 11.2 nM |  | 112 nM |  | 143 nM |  | 881 nM |  |  |  |  |  |  |  |  |  |  |
| CC1OCCC1C#Cc1cnc(Nc2ccnc(-c3cnn(S(=O)(=O)C4CC4)c3)n2)cc1N1CCC(C)(O)CC1 (stereo not drawn) [Example 432, 1-(2-((2-(1-(Cyclopropylsulfonyl)-1H-pyrazol-4-yl)pyrimidin-4-yl)amino)-5-((2-methyltetrahydrofuran-3-yl)ethynyl)pyridin-4-yl)-4-methylpiperidin-4-ol] | 0.6 nM |  | 0.7 nM |  | 5.2 nM |  | 141 nM |  | > 10000 nM |  | 0.4 nM | 0.3 nM | 3.1 nM | 5.3 nM | 11.4 nM |  |  |  |  |  |
